Laboratory results: US20210238173A1, “MITOGEN-ACTIVATED PROTEIN KINASE KINASE 7 INHIBITORS” (Yeda Research and Development Co. Ltd., priority 2018, published 2021)

What was measured:
Type in all cases: biochemical
Details in all cases: 1 μM compound
ABL1 = ABL1 (Homo sapiens, UniProt P00519); experiment: Kinome selectivity screen ABL1
Procedure: (§1) Kinome Selectivity Screen:
(§2) Kinase selectivity was assessed using the Life Technologies SelectScreen Kinase Profiling Service in a custom panel of 76 kinases selected to provide broad representative coverage of all kinase families. Kinase activity assays employed either the Z′-LYTE or Adapta assay technologies with ATP concentrations at or near the KM, ATP for each kinase and a test compound concentration of 1 μM.

ACVR1B (ALK4) = ACVR1B (ALK4) (Homo sapiens, UniProt P36896); experiment: Kinome selectivity screen ACVR1B
Procedure: as §1, §2

AMPK A1/B1/G1 = AMPK A1/B1/G1 (Homo sapiens, UniProt Q13131); experiment: Kinome selectivity screen AMPK
Procedure: as §1, §2

BTK = BTK (Homo sapiens, UniProt Q06187); experiment: Kinome selectivity screen BTK
Procedure: as §1, §2

CDK1/cyclin B = CDK1/cyclin B (Homo sapiens, UniProt P06493); experiment: Kinome selectivity screen CDK1/cyclin B
Procedure: as §1, §2

CHEK1 (CHK1) = CHEK1 (CHK1) (Homo sapiens, UniProt O14757); experiment: Kinome selectivity screen CHEK1
Procedure: as §1, §2

CSNK1G2 (CK1 gamma 2) = CSNK1G2 (CK1 gamma 2) (Homo sapiens, UniProt P78368); experiment: Kinome selectivity screen CSNK1G2
Procedure: as §1, §2

DYRK3 = DYRK3 (Homo sapiens, UniProt O43781); experiment: Kinome selectivity screen DYRK3
DYRK3, sequence (O43781 whole entry): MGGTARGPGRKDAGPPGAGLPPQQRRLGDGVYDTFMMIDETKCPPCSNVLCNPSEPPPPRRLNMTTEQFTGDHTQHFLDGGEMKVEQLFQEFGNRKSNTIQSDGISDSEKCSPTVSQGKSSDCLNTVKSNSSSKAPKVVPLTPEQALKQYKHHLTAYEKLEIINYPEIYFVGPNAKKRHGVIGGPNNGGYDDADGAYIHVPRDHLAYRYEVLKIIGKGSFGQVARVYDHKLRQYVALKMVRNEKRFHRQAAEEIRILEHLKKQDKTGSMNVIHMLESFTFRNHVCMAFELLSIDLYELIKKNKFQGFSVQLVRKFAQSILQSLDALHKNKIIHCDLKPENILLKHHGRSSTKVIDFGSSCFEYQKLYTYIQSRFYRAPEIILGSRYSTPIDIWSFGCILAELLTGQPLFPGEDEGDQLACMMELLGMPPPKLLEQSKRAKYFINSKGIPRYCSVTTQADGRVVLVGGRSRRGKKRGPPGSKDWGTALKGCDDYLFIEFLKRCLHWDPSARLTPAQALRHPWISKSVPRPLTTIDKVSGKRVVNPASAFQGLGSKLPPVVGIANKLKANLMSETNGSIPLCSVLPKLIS
Procedure: as §1, §2

EGFR (ErbB1) = EGFR (ErbB1) (Homo sapiens, UniProt P00533); experiment: Kinome selectivity screen EGFR
Procedure: as §1, §2

ERBB2 (HER2) = ERBB2 (HER2) (Homo sapiens, UniProt P04626); experiment: Kinome selectivity screen ERBB2
Procedure: as §1, §2

FLT1 (VEGFR1) = FLT1 (VEGFR1) (Homo sapiens, UniProt P17948); experiment: Kinome selectivity screen FLT1
FLT1 (VEGFR1), sequence (P17948 27-1338): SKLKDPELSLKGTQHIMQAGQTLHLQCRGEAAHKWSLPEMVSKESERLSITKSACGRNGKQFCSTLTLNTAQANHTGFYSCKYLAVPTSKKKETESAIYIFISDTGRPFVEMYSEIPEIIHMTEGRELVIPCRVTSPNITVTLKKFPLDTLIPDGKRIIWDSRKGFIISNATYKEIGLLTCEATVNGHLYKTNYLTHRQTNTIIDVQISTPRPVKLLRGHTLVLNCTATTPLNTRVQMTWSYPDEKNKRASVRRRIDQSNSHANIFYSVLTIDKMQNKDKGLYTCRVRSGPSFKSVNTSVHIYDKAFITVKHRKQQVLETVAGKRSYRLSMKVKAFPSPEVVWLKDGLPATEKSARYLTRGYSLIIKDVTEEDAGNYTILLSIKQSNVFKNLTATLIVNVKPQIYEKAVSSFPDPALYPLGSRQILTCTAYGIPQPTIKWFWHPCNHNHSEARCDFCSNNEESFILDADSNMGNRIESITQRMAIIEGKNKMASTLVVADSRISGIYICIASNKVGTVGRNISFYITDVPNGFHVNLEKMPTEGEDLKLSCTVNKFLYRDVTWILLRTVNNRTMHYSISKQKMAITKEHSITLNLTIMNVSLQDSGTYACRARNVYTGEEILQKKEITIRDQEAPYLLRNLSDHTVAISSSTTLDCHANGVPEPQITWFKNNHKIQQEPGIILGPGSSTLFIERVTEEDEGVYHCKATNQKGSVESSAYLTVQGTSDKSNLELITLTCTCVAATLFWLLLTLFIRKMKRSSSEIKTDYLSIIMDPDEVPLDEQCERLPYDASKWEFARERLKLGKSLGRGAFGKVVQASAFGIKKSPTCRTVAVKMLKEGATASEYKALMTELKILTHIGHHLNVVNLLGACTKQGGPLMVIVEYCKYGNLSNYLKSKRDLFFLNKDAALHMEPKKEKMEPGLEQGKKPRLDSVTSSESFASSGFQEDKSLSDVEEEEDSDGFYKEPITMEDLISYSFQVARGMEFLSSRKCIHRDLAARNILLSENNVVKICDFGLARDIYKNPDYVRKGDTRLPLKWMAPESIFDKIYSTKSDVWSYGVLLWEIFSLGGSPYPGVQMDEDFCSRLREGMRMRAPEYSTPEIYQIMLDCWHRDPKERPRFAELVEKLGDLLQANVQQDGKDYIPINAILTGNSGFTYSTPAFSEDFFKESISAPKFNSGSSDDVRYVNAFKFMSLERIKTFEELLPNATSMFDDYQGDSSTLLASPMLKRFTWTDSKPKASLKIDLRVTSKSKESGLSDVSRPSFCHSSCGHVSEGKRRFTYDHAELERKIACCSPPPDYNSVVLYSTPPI
Procedure: as §1, §2

FLT3 = FLT3 (Homo sapiens, UniProt P36888); experiment: Kinome selectivity screen FLT3
Procedure: as §1, §2

FRAP1 (mTOR) = FRAP1 (mTOR) (Homo sapiens, UniProt P42345); experiment: Kinome selectivity screen FRAP1
Procedure: as §1, §2

IRAK4 = IRAK4 (Homo sapiens, UniProt Q9NWZ3); experiment: Kinome selectivity screen IRAK4
IRAK4, sequence (Q9NWZ3 whole entry): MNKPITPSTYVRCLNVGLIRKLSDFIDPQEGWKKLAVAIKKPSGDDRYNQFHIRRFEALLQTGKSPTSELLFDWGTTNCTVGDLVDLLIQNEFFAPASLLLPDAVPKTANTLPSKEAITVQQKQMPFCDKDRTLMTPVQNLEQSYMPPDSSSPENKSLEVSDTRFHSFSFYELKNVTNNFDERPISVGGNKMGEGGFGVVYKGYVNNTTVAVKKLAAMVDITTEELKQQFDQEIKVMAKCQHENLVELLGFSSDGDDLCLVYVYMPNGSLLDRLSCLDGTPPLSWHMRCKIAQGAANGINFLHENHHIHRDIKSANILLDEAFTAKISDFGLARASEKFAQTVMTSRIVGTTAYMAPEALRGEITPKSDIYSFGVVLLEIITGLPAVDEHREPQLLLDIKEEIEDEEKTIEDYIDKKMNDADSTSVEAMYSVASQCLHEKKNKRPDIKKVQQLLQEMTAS
Procedure: as §1, §2

JAK3 = JAK3 (Homo sapiens, UniProt P52333); experiment: Kinome selectivity screen JAK3
Procedure: as §1, §2

KIT = KIT (Homo sapiens, UniProt P10721); experiment: Kinome selectivity screen KIT
Procedure: as §1, §2

LCK = LCK (Homo sapiens, UniProt P06239); experiment: Kinome selectivity screen LCK
Procedure: as §1, §2

MAP3K8 (COT) = MAP3K8 (COT) (Homo sapiens, UniProt P41279); experiment: Kinome selectivity screen MAP3K8
Procedure: as §1, §2

MAP3K9 (MLK1) = MAP3K9 (MLK1) (Homo sapiens, UniProt P80192); experiment: Kinome selectivity screen MAP3K9
Procedure: as §1, §2

MAPK8 (JNK1) = MAPK8 (JNK1) (Homo sapiens, UniProt P45983); experiment: Kinome selectivity screen MAPK8
Procedure: as §1, §2

MET (cMet) = MET (cMet) (Homo sapiens, UniProt P08581); experiment: Kinome selectivity screen MET
Procedure: as §1, §2

NTRK1 (TRKA) = NTRK1 (TRKA) (Homo sapiens, UniProt P04629); experiment: Kinome selectivity screen NTRK1
NTRK1 (TRKA), sequence (P04629 33-796): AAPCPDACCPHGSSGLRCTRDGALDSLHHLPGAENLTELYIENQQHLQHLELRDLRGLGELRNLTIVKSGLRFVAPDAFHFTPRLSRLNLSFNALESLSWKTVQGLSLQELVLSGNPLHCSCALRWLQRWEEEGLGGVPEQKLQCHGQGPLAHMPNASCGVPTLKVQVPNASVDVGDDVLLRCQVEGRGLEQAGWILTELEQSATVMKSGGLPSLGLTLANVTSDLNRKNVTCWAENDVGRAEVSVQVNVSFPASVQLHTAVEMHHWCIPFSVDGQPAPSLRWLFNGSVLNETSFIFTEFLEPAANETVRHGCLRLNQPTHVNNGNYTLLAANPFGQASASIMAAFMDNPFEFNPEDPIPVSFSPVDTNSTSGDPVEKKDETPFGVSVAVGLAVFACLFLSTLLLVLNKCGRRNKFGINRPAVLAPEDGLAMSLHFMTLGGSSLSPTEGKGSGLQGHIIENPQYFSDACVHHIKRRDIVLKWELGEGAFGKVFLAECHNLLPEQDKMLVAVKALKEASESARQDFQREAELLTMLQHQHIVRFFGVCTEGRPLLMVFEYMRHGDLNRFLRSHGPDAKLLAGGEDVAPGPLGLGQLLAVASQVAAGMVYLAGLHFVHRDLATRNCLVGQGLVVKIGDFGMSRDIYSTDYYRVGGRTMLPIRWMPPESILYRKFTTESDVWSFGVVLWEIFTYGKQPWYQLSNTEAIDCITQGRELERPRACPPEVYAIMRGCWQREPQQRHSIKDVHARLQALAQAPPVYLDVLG
Procedure: as §1, §2

PDGFRB (PDGFR beta) = PDGFRB (PDGFR beta) (Homo sapiens, UniProt P09619); experiment: Kinome selectivity screen PDGFRB
Procedure: as §1, §2

PDK1 Direct = PDK1 Direct (Homo sapiens, UniProt O15530); experiment: Kinome selectivity screen PDK1 Direct
Procedure: as §1, §2

PIM1 = PIM1 (Homo sapiens, UniProt P11309); experiment: Kinome selectivity screen PIM1
Procedure: as §1, §2

PIM2 = PIM2 (Homo sapiens, UniProt Q9P1W9); experiment: Kinome selectivity screen PIM2
Procedure: as §1, §2

PRKACA (PKA) = PRKACA (PKA) (Homo sapiens, UniProt P17612); experiment: Kinome selectivity screen PRKACA
Procedure: as §1, §2

PRKCB1 (PKC beta I) = PRKCB1 (PKC beta I) (Homo sapiens, UniProt P05771); experiment: Kinome selectivity screen PRKCB1
Procedure: as §1, §2

PRKCD (PKC delta) = PRKCD (PKC delta) (Homo sapiens, UniProt Q05655); experiment: Kinome selectivity screen PRKCD
Procedure: as §1, §2

PRKCE (PKC epsilon) = PRKCE (PKC epsilon) (Homo sapiens, UniProt Q02156); experiment: Kinome selectivity screen PRKCE
Procedure: as §1, §2

PRKG2 (PKG2) = PRKG2 (PKG2) (Homo sapiens, UniProt Q13237); experiment: Kinome selectivity screen PRKG2
PRKG2 (PKG2), sequence (Q13237 whole entry): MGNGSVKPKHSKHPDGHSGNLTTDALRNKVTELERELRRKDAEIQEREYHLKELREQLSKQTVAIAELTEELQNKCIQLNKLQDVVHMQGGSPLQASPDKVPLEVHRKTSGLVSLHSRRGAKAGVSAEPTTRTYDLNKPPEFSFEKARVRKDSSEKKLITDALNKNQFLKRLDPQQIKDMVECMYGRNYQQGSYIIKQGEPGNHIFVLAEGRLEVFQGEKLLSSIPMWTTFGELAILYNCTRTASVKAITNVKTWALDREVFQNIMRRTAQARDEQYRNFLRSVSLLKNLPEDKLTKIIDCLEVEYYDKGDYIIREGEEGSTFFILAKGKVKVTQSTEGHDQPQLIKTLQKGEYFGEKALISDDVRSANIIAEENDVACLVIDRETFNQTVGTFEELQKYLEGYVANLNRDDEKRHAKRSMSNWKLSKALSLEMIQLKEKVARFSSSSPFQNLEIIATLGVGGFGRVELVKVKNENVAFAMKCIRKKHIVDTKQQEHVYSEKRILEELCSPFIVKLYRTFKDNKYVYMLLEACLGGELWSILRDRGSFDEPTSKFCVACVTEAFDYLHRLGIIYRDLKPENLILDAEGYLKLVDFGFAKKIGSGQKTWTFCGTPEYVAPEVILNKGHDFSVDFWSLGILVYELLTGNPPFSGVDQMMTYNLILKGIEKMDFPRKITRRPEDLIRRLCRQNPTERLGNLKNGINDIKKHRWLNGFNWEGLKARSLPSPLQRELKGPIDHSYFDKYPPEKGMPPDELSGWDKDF
Procedure: as §1, §2

RET = RET (Homo sapiens, UniProt P07949); experiment: Kinome selectivity screen RET
Procedure: as §1, §2

ROCK1 = ROCK1 (Homo sapiens, UniProt Q13464); experiment: Kinome selectivity screen ROCK1
Procedure: as §1, §2

RPS6KA3 (RSK2) = RPS6KA3 (RSK2) (Homo sapiens, UniProt P51812); experiment: Kinome selectivity screen RPS6KA3
Procedure: as §1, §2

STK22D (TSSK1) = STK22D (TSSK1) (Homo sapiens, UniProt Q9BXA7); experiment: Kinome selectivity screen STK22D
Procedure: as §1, §2

TEK (Tie2) = TEK (Tie2) (Homo sapiens, UniProt Q02763); experiment: Kinome selectivity screen TEK
TEK (Tie2), sequence (Q02763 23-1124): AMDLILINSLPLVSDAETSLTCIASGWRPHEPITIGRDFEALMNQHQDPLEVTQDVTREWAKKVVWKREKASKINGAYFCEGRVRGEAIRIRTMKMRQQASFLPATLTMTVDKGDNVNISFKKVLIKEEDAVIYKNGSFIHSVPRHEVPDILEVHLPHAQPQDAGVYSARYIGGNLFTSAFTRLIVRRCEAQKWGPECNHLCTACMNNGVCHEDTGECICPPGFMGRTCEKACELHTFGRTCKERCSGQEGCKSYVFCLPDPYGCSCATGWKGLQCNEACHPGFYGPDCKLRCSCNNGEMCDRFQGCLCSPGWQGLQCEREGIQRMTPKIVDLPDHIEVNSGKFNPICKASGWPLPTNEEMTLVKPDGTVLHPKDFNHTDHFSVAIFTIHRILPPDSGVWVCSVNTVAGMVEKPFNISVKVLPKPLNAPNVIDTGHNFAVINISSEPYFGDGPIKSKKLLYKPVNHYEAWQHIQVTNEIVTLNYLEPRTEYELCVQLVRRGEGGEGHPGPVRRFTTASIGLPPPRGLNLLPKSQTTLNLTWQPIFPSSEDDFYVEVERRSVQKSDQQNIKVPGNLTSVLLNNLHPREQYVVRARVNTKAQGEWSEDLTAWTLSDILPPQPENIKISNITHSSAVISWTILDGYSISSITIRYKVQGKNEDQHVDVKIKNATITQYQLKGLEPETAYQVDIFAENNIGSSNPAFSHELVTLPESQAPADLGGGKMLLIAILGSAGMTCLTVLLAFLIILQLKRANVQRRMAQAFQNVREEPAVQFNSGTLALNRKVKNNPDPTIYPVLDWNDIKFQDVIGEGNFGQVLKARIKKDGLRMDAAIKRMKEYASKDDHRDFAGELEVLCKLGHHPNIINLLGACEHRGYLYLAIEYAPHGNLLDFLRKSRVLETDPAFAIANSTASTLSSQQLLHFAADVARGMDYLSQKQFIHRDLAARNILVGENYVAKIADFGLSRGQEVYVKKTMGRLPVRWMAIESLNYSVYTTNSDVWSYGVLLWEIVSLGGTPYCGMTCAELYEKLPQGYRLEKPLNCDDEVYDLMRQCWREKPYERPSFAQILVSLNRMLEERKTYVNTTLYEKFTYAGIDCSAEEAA
Procedure: as §1, §2

| inhibition at 1 µM (ABL1) [%] | inhibition at 1 µM (ACVR1B (ALK4)) [%] | inhibition at 1 µM (AMPK A1/B1/G1) [%] | inhibition at 1 µM (BTK) [%] | inhibition at 1 µM (CDK1/cyclin B) [%] | inhibition at 1 µM (CHEK1 (CHK1)) [%] | inhibition at 1 µM (CSNK1G2 (CK1 gamma 2)) [%] | inhibition at 1 µM (DYRK3) [%] | inhibition at 1 µM (EGFR (ErbB1)) [%] | inhibition at 1 µM (ERBB2 (HER2)) [%] | inhibition at 1 µM (FLT1 (VEGFR1)) [%] | inhibition at 1 µM (FLT3) [%] | inhibition at 1 µM (FRAP1 (mTOR)) [%] | inhibition at 1 µM (IRAK4) [%] | inhibition at 1 µM (JAK3) [%] | inhibition at 1 µM (KIT) [%] | inhibition at 1 µM (LCK) [%] | inhibition at 1 µM (MAP3K8 (COT)) [%] | inhibition at 1 µM (MAP3K9 (MLK1)) [%] | inhibition at 1 µM (MAPK8 (JNK1)) [%] | SMILES | also measured |
| --- | --- | --- | --- | --- | --- | --- | --- | --- | --- | --- | --- | --- | --- | --- | --- | --- | --- | --- | --- | --- | --- |
| 2 | -8 | -5 | 11 | 19 | 10 | 3 | 11 | -6 | 1 | -1 | 55 | -2 | 15 | 89 | 17 | 5 | -7 | 37 | 15 | C=CC(=O)Nc1cccc(-c2n[nH]c3ccccc23)c1 [GO32] | inhibition at 1 µM (MET (cMet)): 9%; inhibition at 1 µM (NTRK1 (TRKA)): 22%; inhibition at 1 µM (PDGFRB (PDGFR beta)): -3%; inhibition at 1 µM (PDK1 Direct): 22%; inhibition at 1 µM (PIM1): 1%; inhibition at 1 µM (PIM2): -2%; inhibition at 1 µM (PRKACA (PKA)): -8%; inhibition at 1 µM (PRKCB1 (PKC beta I)): 1%; inhibition at 1 µM (PRKCD (PKC delta)): 9%; inhibition at 1 µM (PRKCE (PKC epsilon)): 20%; inhibition at 1 µM (PRKG2 (PKG2)): -2%; inhibition at 1 µM (RET): 6%; inhibition at 1 µM (ROCK1): -3%; inhibition at 1 µM (RPS6KA3 (RSK2)): 2%; inhibition at 1 µM (STK22D (TSSK1)): 0%; inhibition at 1 µM (TEK (Tie2)): 25% |
| 1 | 5 | -5 | 15 | 22 | 2 | -13 | 22 | -4 | -1 | 2 | 79 | -2 | 12 | 64 | 10 | 5 | -12 | 8 | 16 | C=CC(=O)Nc1cccc(-c2n[nH]c3cc(C)ccc23)c1 [GO80] | inhibition at 1 µM (MET (cMet)): 13%; inhibition at 1 µM (NTRK1 (TRKA)): 44%; inhibition at 1 µM (PDGFRB (PDGFR beta)): -13%; inhibition at 1 µM (PDK1 Direct): 26%; inhibition at 1 µM (PIM1): 5%; inhibition at 1 µM (PIM2): 3%; inhibition at 1 µM (PRKACA (PKA)): -10%; inhibition at 1 µM (PRKCB1 (PKC beta I)): 5%; inhibition at 1 µM (PRKCD (PKC delta)): 7%; inhibition at 1 µM (PRKCE (PKC epsilon)): 21%; inhibition at 1 µM (PRKG2 (PKG2)): 0%; inhibition at 1 µM (RET): 5%; inhibition at 1 µM (ROCK1): 3%; inhibition at 1 µM (RPS6KA3 (RSK2)): -1%; inhibition at 1 µM (STK22D (TSSK1)): -1%; inhibition at 1 µM (TEK (Tie2)): 1% |
